Data published in patent US5144010A, “Method of producing monoclonal auto-anti-idiotypic antibodies” (The Trustees of Columbia University in the City of New York, priority 1989, dated 1992).

Target: T1, adenosine receptor (Rattus norvegicus, UniProt P25099)
T1 sequence (P25099 1-326): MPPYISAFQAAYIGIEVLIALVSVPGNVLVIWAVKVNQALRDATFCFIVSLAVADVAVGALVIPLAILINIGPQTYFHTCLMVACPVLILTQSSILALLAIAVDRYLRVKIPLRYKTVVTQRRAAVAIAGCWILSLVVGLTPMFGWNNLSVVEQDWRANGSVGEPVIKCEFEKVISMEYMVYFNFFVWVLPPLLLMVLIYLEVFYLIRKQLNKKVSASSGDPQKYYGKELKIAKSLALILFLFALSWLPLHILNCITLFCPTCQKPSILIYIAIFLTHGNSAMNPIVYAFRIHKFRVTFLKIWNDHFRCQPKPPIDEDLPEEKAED
Assay: Binding of monoclonal anti-idiotypic antibodies to adenosine receptor preparation and rabbit anti-CPA
Settings: adenosine receptor preparation from rat brain
Protocol: Protocols for immunization and fusion were essentially identical to that described previously for BisQ in Example 2. Immunization was effected with the RSA conjugate, but the BSA conjugate is just as satisfactory. Screening was conducted with the BSA conjugate and with a specifically purified rabbit antibody raised by immunization with the BSA conjugate. Specifically purified antibody was prepared in a manner analogous to that described for anti-BisQ antibody (1) except that the immunoadsorbent was N^6 -(carboxypentamethylene) adenosine linked to aminohexylsepharose (Pharmacia).

OC[C@H]1O[C@@H](n2cnc3c(NC4CCCCC4)ncnc32)[C@H](O)[C@@H]1O [N^6 -cyclohexyladenosine]
inhibition of the reaction of monoclonal anti-idiotypic antibodies with adenosine receptor: could be inhibited
